# Experimental data as given in the kinase profiling compilation of Christmann-Franck et al. (2016).
# What was measured:
# Assay in all cases: radiometric filter-binding kinase assay, Kinase HotSpot
# Settings in all cases: compound 0.5 µM; ATP 10 µM
# ACVR1 (human) = ACVR1 (human) (UniProt Q04771)
# ADRBK1 (human) = ADRBK1 (human) (UniProt P25098)
# ADRBK2 (human) = ADRBK2 (human) (UniProt P35626)
# CAMK2G (human) = CAMK2G (human) (UniProt Q13555)
# CDK2 CCNE1 (human) = CDK2 CCNE1 (human) (UniProt P24941+P24864)
# CDK3 CCNE1 (human) = CDK3 CCNE1 (human) (UniProt Q00526+P24864)
# CDK6 CCND1 (human) = CDK6 CCND1 (human) (UniProt Q00534+P24385)
# CDK9 CCNK (human) = CDK9 CCNK (human) (UniProt O75909+P50750)
# CHEK2 (human) = CHEK2 (human) (UniProt O96017)
# CSF1R (human) = CSF1R (human) (UniProt P07333)
# DYRK1B (human) = DYRK1B (human) (UniProt Q9Y463)
# DYRK4 (human) = DYRK4 (human) (UniProt Q9NR20)
# Sequence of DYRK4 (human) (Q9NR20 whole entry, looked up): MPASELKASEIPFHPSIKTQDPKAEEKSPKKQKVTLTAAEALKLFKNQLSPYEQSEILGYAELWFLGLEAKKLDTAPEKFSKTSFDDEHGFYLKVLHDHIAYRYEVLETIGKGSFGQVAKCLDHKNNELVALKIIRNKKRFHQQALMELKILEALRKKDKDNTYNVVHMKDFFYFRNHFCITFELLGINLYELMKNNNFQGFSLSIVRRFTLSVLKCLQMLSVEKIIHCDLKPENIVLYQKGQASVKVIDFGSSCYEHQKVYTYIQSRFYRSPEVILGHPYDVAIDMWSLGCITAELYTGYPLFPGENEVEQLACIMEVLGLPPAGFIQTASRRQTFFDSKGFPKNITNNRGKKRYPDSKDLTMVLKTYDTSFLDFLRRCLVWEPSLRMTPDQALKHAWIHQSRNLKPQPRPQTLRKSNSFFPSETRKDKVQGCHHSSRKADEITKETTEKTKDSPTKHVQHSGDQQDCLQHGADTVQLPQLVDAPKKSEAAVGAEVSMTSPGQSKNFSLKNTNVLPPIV
# EPHA8 (human) = EPHA8 (human) (UniProt P29322)
# ERBB4 (human) = ERBB4 (human) (UniProt Q15303)
# FGFR4 (human) = FGFR4 (human) (UniProt P22455)
# GRK7 (human) = GRK7 (human) (UniProt Q8WTQ7)
# GSK3B (human) = GSK3B (human) (UniProt P49841)
# Sequence of GSK3B (human) (P49841 whole entry, looked up): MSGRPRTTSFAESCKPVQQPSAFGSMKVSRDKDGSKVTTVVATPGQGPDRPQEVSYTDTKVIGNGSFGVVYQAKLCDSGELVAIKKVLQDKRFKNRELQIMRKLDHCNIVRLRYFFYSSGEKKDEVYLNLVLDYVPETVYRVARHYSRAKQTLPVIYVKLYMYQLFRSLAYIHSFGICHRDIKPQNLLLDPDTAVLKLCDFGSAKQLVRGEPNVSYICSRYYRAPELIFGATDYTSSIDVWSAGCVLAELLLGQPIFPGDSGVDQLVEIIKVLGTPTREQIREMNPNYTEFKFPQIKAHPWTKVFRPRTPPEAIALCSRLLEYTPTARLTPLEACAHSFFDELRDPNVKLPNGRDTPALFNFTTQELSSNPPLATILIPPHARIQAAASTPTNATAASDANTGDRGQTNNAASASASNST
# LRRK2 (human) = LRRK2 (human) (UniProt Q5S007)
# MAP3K5 (human) = MAP3K5 (human) (UniProt Q99683)
# MAP3K9 (human) = MAP3K9 (human) (UniProt P80192)
# MAP4K2 (human) = MAP4K2 (human) (UniProt Q12851)
# MAPK10 (human) = MAPK10 (human) (UniProt P53779)
# Sequence of MAPK10 (human) (P53779 whole entry, looked up): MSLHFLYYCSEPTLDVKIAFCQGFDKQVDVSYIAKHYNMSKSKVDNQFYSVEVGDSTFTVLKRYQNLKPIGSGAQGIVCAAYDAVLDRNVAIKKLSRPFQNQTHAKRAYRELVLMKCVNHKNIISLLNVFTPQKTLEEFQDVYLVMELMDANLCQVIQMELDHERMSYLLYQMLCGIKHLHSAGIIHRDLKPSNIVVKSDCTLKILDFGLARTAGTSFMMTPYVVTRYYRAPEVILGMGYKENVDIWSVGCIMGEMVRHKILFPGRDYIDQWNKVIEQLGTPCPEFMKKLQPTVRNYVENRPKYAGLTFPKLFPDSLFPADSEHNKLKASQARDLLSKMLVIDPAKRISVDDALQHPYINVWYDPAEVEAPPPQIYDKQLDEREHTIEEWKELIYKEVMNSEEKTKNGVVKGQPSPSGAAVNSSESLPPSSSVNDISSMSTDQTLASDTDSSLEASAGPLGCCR
# MAPKAPK3 (human) = MAPKAPK3 (human) (UniProt Q16644)
# NEK3 (human) = NEK3 (human) (UniProt P51956)
# NEK4 (human) = NEK4 (human) (UniProt P51957)
# NEK6 (human) = NEK6 (human) (UniProt Q9HC98)
# Sequence of NEK6 (human) (Q9HC98 whole entry, looked up): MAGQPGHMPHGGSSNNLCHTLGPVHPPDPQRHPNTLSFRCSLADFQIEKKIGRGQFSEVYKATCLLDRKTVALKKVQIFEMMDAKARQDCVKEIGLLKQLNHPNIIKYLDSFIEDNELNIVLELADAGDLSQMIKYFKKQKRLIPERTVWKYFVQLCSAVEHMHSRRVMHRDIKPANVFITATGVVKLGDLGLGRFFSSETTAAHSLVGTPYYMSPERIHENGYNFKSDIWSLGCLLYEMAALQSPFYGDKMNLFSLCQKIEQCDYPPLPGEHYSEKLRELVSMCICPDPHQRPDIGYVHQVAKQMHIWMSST
# NEK7 (human) = NEK7 (human) (UniProt Q8TDX7)
# Sequence of NEK7 (human) (Q8TDX7 whole entry, looked up): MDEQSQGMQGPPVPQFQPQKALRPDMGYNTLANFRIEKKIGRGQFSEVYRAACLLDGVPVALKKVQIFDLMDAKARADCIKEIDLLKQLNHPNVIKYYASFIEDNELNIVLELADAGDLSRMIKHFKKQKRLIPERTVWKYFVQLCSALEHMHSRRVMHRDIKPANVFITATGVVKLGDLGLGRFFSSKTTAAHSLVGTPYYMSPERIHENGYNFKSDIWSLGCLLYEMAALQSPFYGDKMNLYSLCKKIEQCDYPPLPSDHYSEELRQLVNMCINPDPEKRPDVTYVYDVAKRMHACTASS
# NUAK1 (human) = NUAK1 (human) (UniProt O60285)
# PDGFRA (human) = PDGFRA (human) (UniProt P16234)
# PHKG2 (human) = PHKG2 (human) (UniProt P15735)
# Sequence of PHKG2 (human) (P15735 whole entry, looked up): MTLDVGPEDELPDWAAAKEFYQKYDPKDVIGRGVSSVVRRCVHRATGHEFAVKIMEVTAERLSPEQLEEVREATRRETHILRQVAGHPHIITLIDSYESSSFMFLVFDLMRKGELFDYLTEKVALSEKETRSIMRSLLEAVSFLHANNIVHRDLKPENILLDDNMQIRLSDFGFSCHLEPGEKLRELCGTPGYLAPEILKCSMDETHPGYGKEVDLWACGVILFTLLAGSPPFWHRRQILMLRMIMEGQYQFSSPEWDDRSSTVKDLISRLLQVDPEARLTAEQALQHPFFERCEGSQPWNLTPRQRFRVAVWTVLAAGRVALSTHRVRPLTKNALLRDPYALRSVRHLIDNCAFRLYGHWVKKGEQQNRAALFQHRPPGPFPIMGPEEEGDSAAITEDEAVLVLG
# PLK1 (human) = PLK1 (human) (UniProt P53350)
# PRKCA (human) = PRKCA (human) (UniProt P17252)
# PRKCB1 (human) = PRKCB1 (human) (UniProt P05771)
# [1] = system: PRKCQ (human), Q04759 [P330L]
# PRKCZ (human) = PRKCZ (human) (UniProt Q05513)
# Sequence of PRKCZ (human) (Q05513 whole entry, looked up): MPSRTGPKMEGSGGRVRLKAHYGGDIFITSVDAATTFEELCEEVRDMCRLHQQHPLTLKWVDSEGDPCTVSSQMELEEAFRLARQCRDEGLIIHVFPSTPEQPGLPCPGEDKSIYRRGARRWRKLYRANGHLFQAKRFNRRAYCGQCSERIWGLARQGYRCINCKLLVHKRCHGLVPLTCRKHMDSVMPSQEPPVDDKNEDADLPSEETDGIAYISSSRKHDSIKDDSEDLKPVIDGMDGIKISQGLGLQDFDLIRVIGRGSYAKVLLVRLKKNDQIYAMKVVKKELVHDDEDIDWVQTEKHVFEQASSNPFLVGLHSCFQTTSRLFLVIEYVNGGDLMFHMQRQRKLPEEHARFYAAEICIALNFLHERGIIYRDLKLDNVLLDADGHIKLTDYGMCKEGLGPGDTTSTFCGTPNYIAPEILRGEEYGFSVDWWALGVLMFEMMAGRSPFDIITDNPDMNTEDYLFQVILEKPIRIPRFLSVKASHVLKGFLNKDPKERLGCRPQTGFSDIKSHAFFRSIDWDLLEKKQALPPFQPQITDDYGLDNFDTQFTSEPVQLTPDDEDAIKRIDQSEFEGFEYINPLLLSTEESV
# PRKG2 (human) = PRKG2 (human) (UniProt Q13237)
# Sequence of PRKG2 (human) (Q13237 whole entry, looked up): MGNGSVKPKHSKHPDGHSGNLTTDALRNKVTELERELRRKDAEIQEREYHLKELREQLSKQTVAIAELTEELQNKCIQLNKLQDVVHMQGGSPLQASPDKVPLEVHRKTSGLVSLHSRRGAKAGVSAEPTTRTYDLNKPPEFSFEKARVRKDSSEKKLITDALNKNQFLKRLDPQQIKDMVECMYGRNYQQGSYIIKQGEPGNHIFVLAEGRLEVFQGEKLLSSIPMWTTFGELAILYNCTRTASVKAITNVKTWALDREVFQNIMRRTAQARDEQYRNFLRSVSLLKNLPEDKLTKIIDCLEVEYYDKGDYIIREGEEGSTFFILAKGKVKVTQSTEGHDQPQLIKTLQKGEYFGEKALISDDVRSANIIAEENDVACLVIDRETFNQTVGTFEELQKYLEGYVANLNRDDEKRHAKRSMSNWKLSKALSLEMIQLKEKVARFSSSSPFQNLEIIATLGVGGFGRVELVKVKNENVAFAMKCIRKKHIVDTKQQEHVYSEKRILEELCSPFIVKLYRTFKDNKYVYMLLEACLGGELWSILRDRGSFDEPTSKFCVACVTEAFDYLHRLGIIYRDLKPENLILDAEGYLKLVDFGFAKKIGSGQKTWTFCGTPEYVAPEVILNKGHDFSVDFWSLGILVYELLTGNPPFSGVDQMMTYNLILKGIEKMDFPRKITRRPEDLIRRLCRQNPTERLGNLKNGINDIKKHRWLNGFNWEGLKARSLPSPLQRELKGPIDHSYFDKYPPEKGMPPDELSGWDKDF
# PTK6 (human) = PTK6 (human) (UniProt Q13882)
# SRMS (human) = SRMS (human) (UniProt Q9H3Y6)
# TBK1 (human) = TBK1 (human) (UniProt Q9UHD2)
# TGFBR1 (human) = TGFBR1 (human) (UniProt P36897)
# TTK (human) = TTK (human) (UniProt P33981)
# WNK3 (human) = WNK3 (human) (UniProt Q9BYP7)
# Sequence of ACVR1 (human) (Q04771 whole entry, looked up): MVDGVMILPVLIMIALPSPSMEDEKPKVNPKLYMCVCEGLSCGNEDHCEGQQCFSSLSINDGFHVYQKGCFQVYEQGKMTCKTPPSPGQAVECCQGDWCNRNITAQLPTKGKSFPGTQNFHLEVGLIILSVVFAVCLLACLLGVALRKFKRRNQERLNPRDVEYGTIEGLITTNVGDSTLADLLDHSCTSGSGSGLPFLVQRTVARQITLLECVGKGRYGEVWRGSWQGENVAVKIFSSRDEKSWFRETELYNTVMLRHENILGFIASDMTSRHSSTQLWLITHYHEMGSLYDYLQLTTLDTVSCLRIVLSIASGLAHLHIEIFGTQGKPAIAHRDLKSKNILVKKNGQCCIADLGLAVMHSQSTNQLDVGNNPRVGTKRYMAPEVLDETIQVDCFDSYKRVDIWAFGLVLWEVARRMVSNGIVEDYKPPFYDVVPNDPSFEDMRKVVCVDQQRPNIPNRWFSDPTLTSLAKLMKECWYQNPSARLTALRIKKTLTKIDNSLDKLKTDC
compound,measurement,setting,value
CC(C)(C)c1cc(C=C(C#N)C#N)cc(Br)c1O,residual activity,ACVR1 (human),102%
same,residual activity,ADRBK1 (human),83.7%
same,residual activity,ADRBK2 (human),98%
same,residual activity,CAMK2G (human),104%
same,residual activity,CDK2 CCNE1 (human),77.6%
same,residual activity,CDK3 CCNE1 (human),98.9%
same,residual activity,CDK6 CCND1 (human),99.1%
same,residual activity,CDK9 CCNK (human),109%
same,residual activity,CHEK2 (human),104%
same,residual activity,CSF1R (human),96.8%
same,residual activity,DYRK1B (human),103%
same,residual activity,DYRK4 (human),98.2%
same,residual activity,EPHA8 (human),100%
same,residual activity,ERBB4 (human),94%
same,residual activity,FGFR4 (human),98%
same,residual activity,GRK7 (human),107%
same,residual activity,GSK3B (human),107%
same,residual activity,LRRK2 (human),109%
same,residual activity,MAP3K5 (human),100%
same,residual activity,MAP3K9 (human),90.2%
same,residual activity,MAP4K2 (human),113%
same,residual activity,MAPK10 (human),92.5%
same,residual activity,MAPKAPK3 (human),103%
same,residual activity,NEK3 (human),96.6%
same,residual activity,NEK4 (human),93.7%
same,residual activity,NEK6 (human),111%
same,residual activity,NEK7 (human),89.5%
same,residual activity,NUAK1 (human),95.4%
same,residual activity,PDGFRA (human),95.4%
same,residual activity,PHKG2 (human),106%
same,residual activity,PLK1 (human),92.3%
same,residual activity,PRKCA (human),81.4%
same,residual activity,PRKCB1 (human),102%
same,residual activity,[1],98%
same,residual activity,PRKCZ (human),102%
same,residual activity,PRKG2 (human),87.6%
same,residual activity,PTK6 (human),91.4%
same,residual activity,SRMS (human),98.4%
same,residual activity,TBK1 (human),90.2%
same,residual activity,TGFBR1 (human),103%
same,residual activity,TTK (human),101%
same,residual activity,WNK3 (human),106%
O=C1C(Cl)=C(N2C(=O)CCC2=O)C(=O)c2ccccc21,residual activity,ACVR1 (human),96.9%
same,residual activity,ADRBK1 (human),105%
same,residual activity,ADRBK2 (human),103%
same,residual activity,CAMK2G (human),104%
same,residual activity,CDK2 CCNE1 (human),90.3%
same,residual activity,CDK3 CCNE1 (human),102%
same,residual activity,CDK6 CCND1 (human),100%
same,residual activity,CDK9 CCNK (human),97.2%
same,residual activity,CHEK2 (human),95.7%
same,residual activity,CSF1R (human),102%
same,residual activity,DYRK1B (human),103%
same,residual activity,DYRK4 (human),94.1%
same,residual activity,EPHA8 (human),107%
same,residual activity,ERBB4 (human),110%
same,residual activity,FGFR4 (human),105%
same,residual activity,GRK7 (human),109%
same,residual activity,GSK3B (human),100%
same,residual activity,LRRK2 (human),103%
same,residual activity,MAP3K5 (human),99.1%
same,residual activity,MAP3K9 (human),106%
same,residual activity,MAP4K2 (human),89.6%
same,residual activity,MAPK10 (human),93.6%
same,residual activity,MAPKAPK3 (human),103%
same,residual activity,NEK3 (human),102%
same,residual activity,NEK4 (human),99.6%
same,residual activity,NEK6 (human),104%
same,residual activity,NEK7 (human),95.4%
same,residual activity,NUAK1 (human),105%
same,residual activity,PDGFRA (human),109%
same,residual activity,PHKG2 (human),100%
same,residual activity,PLK1 (human),97.6%
same,residual activity,PRKCA (human),99.1%
same,residual activity,PRKCB1 (human),92.1%
same,residual activity,[1],114%
same,residual activity,PRKCZ (human),114%
same,residual activity,PRKG2 (human),114%
same,residual activity,PTK6 (human),94.8%
same,residual activity,SRMS (human),108%
same,residual activity,TBK1 (human),97.9%
same,residual activity,TGFBR1 (human),101%
same,residual activity,TTK (human),108%
same,residual activity,WNK3 (human),96.4%
NC(=O)c1cccc(-c2cc(Nc3ccc(OC(F)(F)F)cc3)ncn2)c1,residual activity,ACVR1 (human),99.4%
same,residual activity,ADRBK1 (human),96.1%
same,residual activity,ADRBK2 (human),80.5%
same,residual activity,CAMK2G (human),102%
same,residual activity,CDK2 CCNE1 (human),86.6%
same,residual activity,CDK3 CCNE1 (human),98.8%
same,residual activity,CDK6 CCND1 (human),99.1%
same,residual activity,CDK9 CCNK (human),106%
same,residual activity,CHEK2 (human),101%
same,residual activity,CSF1R (human),94.1%
same,residual activity,DYRK1B (human),97.9%
same,residual activity,DYRK4 (human),96.3%
same,residual activity,EPHA8 (human),94.5%
same,residual activity,ERBB4 (human),85.3%
same,residual activity,FGFR4 (human),92.9%
same,residual activity,GRK7 (human),97.1%
same,residual activity,GSK3B (human),110%
same,residual activity,LRRK2 (human),108%
same,residual activity,MAP3K5 (human),90.3%
same,residual activity,MAP3K9 (human),95.7%
same,residual activity,MAP4K2 (human),132%
same,residual activity,MAPK10 (human),104%
same,residual activity,MAPKAPK3 (human),98%
same,residual activity,NEK3 (human),121%
same,residual activity,NEK4 (human),98%
same,residual activity,NEK6 (human),97.4%
same,residual activity,NEK7 (human),96.3%
same,residual activity,NUAK1 (human),96.7%
same,residual activity,PDGFRA (human),91.8%
same,residual activity,PHKG2 (human),103%
same,residual activity,PLK1 (human),97.7%
same,residual activity,PRKCA (human),77.4%
same,residual activity,PRKCB1 (human),97.4%
same,residual activity,[1],104%
same,residual activity,PRKCZ (human),100%
same,residual activity,PRKG2 (human),96.4%
same,residual activity,PTK6 (human),94.5%
same,residual activity,SRMS (human),93.4%
same,residual activity,TBK1 (human),92.4%
same,residual activity,TGFBR1 (human),103%
same,residual activity,TTK (human),91.4%
same,residual activity,WNK3 (human),105%
CN(C)CCCn1cc(C2=C(c3c[nH]c4ccccc34)C(=O)NC2=O)c2ccccc21,residual activity,ACVR1 (human),96.3%
same,residual activity,ADRBK1 (human),96.5%
same,residual activity,ADRBK2 (human),99%
same,residual activity,CAMK2G (human),73.3%
same,residual activity,CDK2 CCNE1 (human),80.4%
same,residual activity,CDK3 CCNE1 (human),93.2%
same,residual activity,CDK6 CCND1 (human),58.3%
same,residual activity,CDK9 CCNK (human),60.3%
same,residual activity,CHEK2 (human),68.5%
same,residual activity,CSF1R (human),76.7%
same,residual activity,DYRK1B (human),76%
same,residual activity,DYRK4 (human),95%
same,residual activity,EPHA8 (human),103%
same,residual activity,ERBB4 (human),87.7%
same,residual activity,FGFR4 (human),89%
same,residual activity,GRK7 (human),60.4%
same,residual activity,GSK3B (human),7.01%
same,residual activity,LRRK2 (human),89.8%
same,residual activity,MAP3K5 (human),90.2%
same,residual activity,MAP3K9 (human),46%
same,residual activity,MAP4K2 (human),94.2%
same,residual activity,MAPK10 (human),99.3%
same,residual activity,MAPKAPK3 (human),95.3%
same,residual activity,NEK3 (human),110%
same,residual activity,NEK4 (human),94.3%
same,residual activity,NEK6 (human),96.3%
same,residual activity,NEK7 (human),87.1%
same,residual activity,NUAK1 (human),25.9%
same,residual activity,PDGFRA (human),69.2%
same,residual activity,PHKG2 (human),97.9%
same,residual activity,PLK1 (human),101%
same,residual activity,PRKCA (human),6.27%
same,residual activity,PRKCB1 (human),3.24%
same,residual activity,[1],17.3%
same,residual activity,PRKCZ (human),57.2%
same,residual activity,PRKG2 (human),38.7%
same,residual activity,PTK6 (human),95.3%
same,residual activity,SRMS (human),104%
same,residual activity,TBK1 (human),83.8%
same,residual activity,TGFBR1 (human),102%
same,residual activity,TTK (human),98.2%
same,residual activity,WNK3 (human),98.4%
